Assay results taken from patent US11344601B2, “Tumor microenvironment-related target TAK1 and application thereof in inhibition of tumor” (Shanghai Institutes for Biological Sciences, Chinese …, priority 2017, dated 2022).

What was measured:
ATM = biological target: T1, ATM (Homo sapiens, UniProt Q13315); experiment: p-ATM antibody-mediated IP of bleomycin-treated PSC27 cells (ATM-TRAF6 interaction); format: cell-based; settings: bleomycin-treated stromal cells
T1 construct: endogenous in cells; host or cells: PSC27 human prostate stromal cells
T1 sequence (Q13315 whole entry): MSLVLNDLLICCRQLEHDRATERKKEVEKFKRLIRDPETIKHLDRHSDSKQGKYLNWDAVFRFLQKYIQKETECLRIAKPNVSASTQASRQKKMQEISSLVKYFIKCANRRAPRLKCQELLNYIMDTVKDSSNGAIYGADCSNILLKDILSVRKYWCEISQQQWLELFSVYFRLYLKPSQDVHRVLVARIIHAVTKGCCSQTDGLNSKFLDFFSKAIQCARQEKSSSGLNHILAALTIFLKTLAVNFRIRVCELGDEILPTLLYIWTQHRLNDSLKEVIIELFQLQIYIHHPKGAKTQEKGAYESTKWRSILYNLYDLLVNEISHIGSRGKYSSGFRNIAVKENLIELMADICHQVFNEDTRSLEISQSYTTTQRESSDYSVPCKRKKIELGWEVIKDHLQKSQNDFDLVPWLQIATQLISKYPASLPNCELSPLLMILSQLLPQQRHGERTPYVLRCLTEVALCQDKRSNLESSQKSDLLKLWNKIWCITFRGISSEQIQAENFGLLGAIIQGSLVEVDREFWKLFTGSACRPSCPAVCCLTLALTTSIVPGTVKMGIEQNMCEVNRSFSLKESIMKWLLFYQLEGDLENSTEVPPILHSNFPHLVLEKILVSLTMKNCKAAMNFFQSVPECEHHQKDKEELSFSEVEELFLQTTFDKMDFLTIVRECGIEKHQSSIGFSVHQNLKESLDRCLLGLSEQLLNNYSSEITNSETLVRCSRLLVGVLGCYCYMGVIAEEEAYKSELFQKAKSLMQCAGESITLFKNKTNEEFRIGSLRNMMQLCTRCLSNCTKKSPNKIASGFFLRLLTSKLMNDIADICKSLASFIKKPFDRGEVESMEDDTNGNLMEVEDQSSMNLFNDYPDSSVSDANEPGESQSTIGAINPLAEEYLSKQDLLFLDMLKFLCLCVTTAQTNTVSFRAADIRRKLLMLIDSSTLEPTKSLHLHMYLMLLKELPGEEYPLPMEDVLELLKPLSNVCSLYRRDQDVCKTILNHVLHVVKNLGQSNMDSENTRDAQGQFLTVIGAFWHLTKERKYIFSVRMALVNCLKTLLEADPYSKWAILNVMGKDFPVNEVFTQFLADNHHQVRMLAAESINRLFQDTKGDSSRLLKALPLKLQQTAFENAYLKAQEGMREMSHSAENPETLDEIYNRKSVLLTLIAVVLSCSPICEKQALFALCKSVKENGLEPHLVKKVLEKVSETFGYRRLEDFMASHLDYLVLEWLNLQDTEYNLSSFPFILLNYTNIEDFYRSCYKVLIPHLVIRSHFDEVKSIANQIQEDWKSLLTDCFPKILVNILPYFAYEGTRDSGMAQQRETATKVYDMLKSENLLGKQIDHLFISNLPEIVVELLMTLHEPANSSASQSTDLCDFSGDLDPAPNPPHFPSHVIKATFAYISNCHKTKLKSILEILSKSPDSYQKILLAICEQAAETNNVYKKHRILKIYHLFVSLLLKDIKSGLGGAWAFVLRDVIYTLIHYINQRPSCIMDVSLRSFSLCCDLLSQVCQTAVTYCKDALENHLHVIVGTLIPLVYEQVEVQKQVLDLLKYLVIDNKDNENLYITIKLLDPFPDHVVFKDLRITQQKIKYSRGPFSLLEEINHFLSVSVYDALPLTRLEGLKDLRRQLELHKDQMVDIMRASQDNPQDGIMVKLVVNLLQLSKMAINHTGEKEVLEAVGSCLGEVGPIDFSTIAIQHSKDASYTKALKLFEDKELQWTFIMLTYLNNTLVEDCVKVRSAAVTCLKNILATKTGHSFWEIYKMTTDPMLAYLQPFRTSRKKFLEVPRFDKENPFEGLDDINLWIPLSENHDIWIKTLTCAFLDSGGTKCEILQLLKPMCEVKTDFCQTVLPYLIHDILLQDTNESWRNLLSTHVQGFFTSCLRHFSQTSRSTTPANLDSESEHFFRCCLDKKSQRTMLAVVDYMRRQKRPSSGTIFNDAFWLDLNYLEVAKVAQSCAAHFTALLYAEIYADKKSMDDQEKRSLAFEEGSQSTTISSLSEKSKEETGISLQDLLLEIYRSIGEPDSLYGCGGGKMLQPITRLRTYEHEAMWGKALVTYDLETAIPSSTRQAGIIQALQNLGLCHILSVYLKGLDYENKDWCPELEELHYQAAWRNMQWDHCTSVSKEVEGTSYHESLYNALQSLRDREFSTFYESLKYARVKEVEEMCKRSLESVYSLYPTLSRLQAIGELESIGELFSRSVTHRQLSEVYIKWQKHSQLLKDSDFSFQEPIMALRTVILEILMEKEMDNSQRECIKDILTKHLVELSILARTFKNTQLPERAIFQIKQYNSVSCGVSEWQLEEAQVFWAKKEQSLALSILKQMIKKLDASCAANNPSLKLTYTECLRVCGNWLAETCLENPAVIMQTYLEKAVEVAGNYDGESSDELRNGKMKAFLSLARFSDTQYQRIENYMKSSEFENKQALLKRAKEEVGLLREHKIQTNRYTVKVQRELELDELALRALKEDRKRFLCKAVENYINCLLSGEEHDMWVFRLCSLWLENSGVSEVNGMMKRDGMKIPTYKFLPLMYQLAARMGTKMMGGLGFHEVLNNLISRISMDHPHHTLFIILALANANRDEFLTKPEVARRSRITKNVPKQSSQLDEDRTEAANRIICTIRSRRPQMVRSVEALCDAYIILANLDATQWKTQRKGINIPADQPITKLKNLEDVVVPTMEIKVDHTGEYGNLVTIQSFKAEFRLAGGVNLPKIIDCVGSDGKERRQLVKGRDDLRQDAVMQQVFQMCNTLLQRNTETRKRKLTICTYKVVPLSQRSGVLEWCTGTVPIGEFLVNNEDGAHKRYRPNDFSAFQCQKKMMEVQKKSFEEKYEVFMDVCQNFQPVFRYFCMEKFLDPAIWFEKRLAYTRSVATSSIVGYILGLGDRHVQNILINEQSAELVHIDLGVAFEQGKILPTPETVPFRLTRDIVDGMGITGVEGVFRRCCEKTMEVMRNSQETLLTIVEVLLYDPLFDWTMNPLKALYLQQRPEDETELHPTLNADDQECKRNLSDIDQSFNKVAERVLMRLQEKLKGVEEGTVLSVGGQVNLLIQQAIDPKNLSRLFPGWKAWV
Protocol: Phosphorylated ATM (p-ATM) antibody-mediated IP analysis. The expression levels of TRAF6, p-ATM and ATM in IP precipitates were detected by Western blot. TRAF6, a loading control. PSC27 was treated with bleomycin (50 ug/ml) and then with the ATM small molecule inhibitor KU55933 (KU, 10 μM).

[1] = test system: NSCLC cell line A549/stromal cell line W138 xenograft tumors; experiment: NSCLC xenograft (A549/W138) preclinical chemotherapy, terminal tumor volume; format: in vivo, mice; settings: chemotherapy alone (group 6 vs group 5)
Protocol: (§1) FIG. 83. Statistical comparative analysis of terminal tumor volumes in NSCLC tumors transplanted mice (NSCLC cell line A549/stromal cell line […]1 for administration alone or in combination with bleomycin-based chemotherapy). […] All experimental mouse experiments were carried out in strict accordance with the relevant regulations of the Institutional animal care and use committee (IACUC) of the shanghai Institute of Life Sciences of the Chinese Academy of Sciences. ICR-SCID mice at an age of about 6 weeks (about 25 g in body weight) were used in this patent-related animal experiment. Stromal cells PSC27 and epithelial cells were mixed at a ratio of 1:4, with each implant containing 1.25×10^6 cells for tissue recombination. The transplant tumor was implanted into mice subcutaneously, and the animals were euthanized at the end of Week 8 after transplantation. The tumor volume was calculated according to the following formula: […] Similarly, lung and breast cancer xenograft tumors were formed by tissue recombination with A549 (non-small cell lung cancer cell line) and W138 (lung fibroblast line), MDA-MB-231 (triple negative breast cancer cell line) and HBF1203 (breast fibroblast line), respectively. In the preclinical chemotherapy trial, mice subcutaneously transplanted with tumors were fed standard experimental diet. […]

[2] = test system: BCa cell line MDA-MB-231/stromal cell line HBF1203 xenograft tumors; experiment: BCa xenograft (MDA-MB-231/HBF1203) preclinical chemotherapy, terminal tumor volume; format: in vivo, mice; settings: chemotherapy alone (group 6 vs group 5), MDA-MB-231/HBF1203 tumors
Protocol: as §1, with “84.” for “83.”, “BCa” for “NSCLC”, “(BCa” for “(NSCLC”, “MDA-MB-231/stromal” for “A549/stromal”, “combined” for “in combination”, “bleomycin for” for “bleomycin-based”

| Compound | interaction between activated ATM and TRAF6 (ATM) | decrease in terminal tumor volume [1] | decrease in terminal tumor volume [2] |
| --- | --- | --- | --- |
| O=c1cc(-c2cccc3c2Sc2ccccc2S3)oc(N2CCOCC2)c1 [KU55933] | abolished | – | – |
| bleomycin | – | 38% | 32% |
